Results from patent publication US8563253B2, “Means and method for diagnosing hemolytic anemia” (priority 2006, dated 2013).

System: rats
Assay: Plasma metabolite profiling (GC-MS/LC-MS) of rats treated with aniline; biomarkers for aniline-inducible hemolytic anemia
Format: in vivo, rat
Protocol: A group of each 5 male and female rats was dosed once daily with aniline at 10 and 100 mg/kg body weight per gavage over 28 days. Additional groups of each 5 male and female animals served as controls. Before starting the treatment period, animals, which were 62-64 days old when supplied, were acclimatized to the housing and environmental conditions for 7 days. All animals of the animal population were kept under the same constant temperature (20-24±3° C.) and the same constant humidity (30-70%). Each animal of the animal population was kept in a separate cage. The animals of the animal population are fed ad libitum. The food to be used was be essentially free of chemical or microbial contaminants. Drinking water was also offered ad libitum. Accordingly, the water was be free of chemical and microbial contaminants as laid down in the European Drinking Water Directive 98/83/EG. The illumination period was 12 hours light followed by 12 hours darkness (12 hours light, from 6:00 to 18:00, and 12 hours darkness, from 18:00 to 6:00).
In the morning of day 7, 14, and 28, blood was taken from the retroorbital venous plexus from fasted anaesthetized animals. From each animal, 1 ml of blood was collected with EDTA as anticoagulant. The samples were be centrifuged for generation of plasma. All plasma samples were covered with a N2 atmosphere and then stored at −80° C. until analysis.
For mass spectrometry-based metabolite profiling analyses plasma samples were extracted and a polar and a non-polar fraction was obtained. For GC-MS analysis, the non-polar fraction was hydrolyzed under acidic conditions to yield the fatty acid methyl esters. Both fractions were further derivatised with a silylating agent before analysis. In LC-MS analysis, both fractions were reconstituted in appropriate solvent mixtures. HPLC was performed by gradient elution on reversed phase separation columns. For mass spectrometric detection metanomics proprietary technology was applied which allows target and high sensitivity MRM (Multiple Reaction Monitoring) profiling in parallel to a full screen analysis. […] Moreover, several hundred further analytes giving a fingerprint of the sample are included in the methods.
Following comprehensive analytical validation steps, the data for each analyte were normalized against data from pool samples. These samples were run in parallel through the whole process to account for process variability. The significance of treatment group values specific for sex, dose group and metabolite was determined by comparing means of the treated groups to the means of the respective untreated control groups using Student's t-test. Normalized treatment group values and their significance were fed into a database for further statistics and data mining processes.
The changes of the group of plasma metabolites being indicative for hemolytic anemia after treatment of rats with aniline are shown in the following table: […]

[1] = female rats, day 7, 100 mg/kg body weight/day by gavage
[2] = female rats, day 14, 100 mg/kg body weight/day by gavage
[3] = female rats, day 28, 100 mg/kg body weight/day by gavage
[4] = male and female rats, 100 mg/kg body weight/day by gavage for 28 days
[5] = male rats, day 7, 100 mg/kg body weight/day by gavage
[6] = male rats, day 14, 100 mg/kg body weight/day by gavage
[7] = male rats, day 28, 100 mg/kg body weight/day by gavage

## Nc1ccccc1 [aniline]
[1]
  11-desoxycortisol, fold change against controls: 0.39 fold
  18-hydroxycorticosterone, fold change against controls: 0.43 fold
  cytosine, fold change against controls: 1.81 fold
  ribal (1,4-anhydro-2-deoxy-D-erythro-pent-1-enitol) (=MetID 407), fold change against controls: 1.79 fold
[2]
  11-desoxycortisol, fold change against controls: 0.71 fold
  18-hydroxycorticosterone, fold change against controls: 0.71 fold
  cytosine, fold change against controls: 1.18 fold
  ribal (1,4-anhydro-2-deoxy-D-erythro-pent-1-enitol) (=MetID 407), fold change against controls: 1.66 fold
[3]
  11-desoxycortisol, fold change against controls: 0.41 fold
  18-hydroxycorticosterone, fold change against controls: 0.47 fold
  cytosine, fold change against controls: 1.38 fold
  ribal (1,4-anhydro-2-deoxy-D-erythro-pent-1-enitol) (=MetID 407), fold change against controls: 1.59 fold
[4]
  Regulation of 11-desoxycortisol: down
  Regulation of 18-hydroxycorticosterone: down
  Regulation of cytosine: up
  Regulation of ribal (1,4-anhydro-2-deoxy-D-erythro-pent-1-enitol) (=MetID 407): up
[5]
  11-desoxycortisol, fold change against controls: 0.47 fold
  18-hydroxycorticosterone, fold change against controls: 0.34 fold
  cytosine, fold change against controls: 1.50 fold
  ribal (1,4-anhydro-2-deoxy-D-erythro-pent-1-enitol) (=MetID 407), fold change against controls: 1.68 fold
[6]
  11-desoxycortisol, fold change against controls: 0.48 fold
  18-hydroxycorticosterone, fold change against controls: 0.33 fold
  cytosine, fold change against controls: 1.17 fold
  ribal (1,4-anhydro-2-deoxy-D-erythro-pent-1-enitol) (=MetID 407), fold change against controls: 1.42 fold
[7]
  11-desoxycortisol, fold change against controls: 0.27 fold
  18-hydroxycorticosterone, fold change against controls: 0.18 fold
  cytosine, fold change against controls: 1.71 fold
  ribal (1,4-anhydro-2-deoxy-D-erythro-pent-1-enitol) (=MetID 407), fold change against controls: 1.82 fold
